Calls of active or inactive are those of the source.
Legend:
Carbonic anhydrase 1 [1] = target: T1, Carbonic anhydrase 1 (Homo sapiens, UniProt P00915); test: Inhibition of recombinant human carbonic anhydrase 1 incubated for 15 mins prior to testing measured for 10 to 100 secs by phenol red-based stopped-flow CO2 hydration assay
Carbonic anhydrase 2 [2] = target: T2, Carbonic anhydrase 2 (Homo sapiens, UniProt P00918); test: Inhibition of recombinant human carbonic anhydrase 2 incubated for 15 mins prior to testing measured for 10 to 100 secs by phenol red-based stopped-flow CO2 hydration assay
Carbonic anhydrase 9 [3] = target: T3, Carbonic anhydrase 9 (Homo sapiens, UniProt Q16790); test: Inhibition of recombinant human carbonic anhydrase 9 incubated for 15 mins prior to testing measured for 10 to 100 secs by phenol red-based stopped-flow CO2 hydration assay
Rattus norvegicus [4] = test: (§1) Antihyperalgesic activity in complete freund's adjuvant-induced Sprague-Dawley rat arthritis model assessed as increase in hind paw withdrawal reflex thresholds at 42.4 mg/kg, po administered 14 days post complete freund's adjuvant challenge and measured up to 45 mins by analgesiometry-based paw pressure test; assay type: functional, organism-based
Rattus norvegicus [5] = test: Effect on contralateral paw withdrawal reflex threshold in complete freund's adjuvant-induced Sprague-Dawley rat arthritis model at 42.4 mg/kg, po administered 14 days post complete freund's adjuvant challenge by analgesiometry-based paw pressure test; assay type: ADME, organism-based; settings: in vivo, 336 h
Rattus norvegicus [6] = test: as §1, with “after 45” for “up”, “60” for “45”; assay type: functional, organism-based
Carbonic anhydrase 4 = Carbonic anhydrase 4 (Homo sapiens, UniProt P22748); test: Inhibition of recombinant human carbonic anhydrase 4 incubated for 15 mins prior to testing measured for 10 to 100 secs by phenol red-based stopped-flow CO2 hydration assay
Carbonic anhydrase 4, sequence (P22748 whole entry): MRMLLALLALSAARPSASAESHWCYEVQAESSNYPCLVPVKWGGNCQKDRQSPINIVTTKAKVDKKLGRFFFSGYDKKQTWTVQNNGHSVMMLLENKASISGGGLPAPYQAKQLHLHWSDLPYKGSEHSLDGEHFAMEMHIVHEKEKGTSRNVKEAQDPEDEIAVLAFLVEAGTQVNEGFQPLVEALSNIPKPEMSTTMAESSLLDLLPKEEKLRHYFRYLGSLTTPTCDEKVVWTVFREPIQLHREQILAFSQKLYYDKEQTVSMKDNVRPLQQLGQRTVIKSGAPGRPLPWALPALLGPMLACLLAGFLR

Rattus norvegicus [7] = test: (§2) Antihyperalgesic activity in complete freund's adjuvant-induced Sprague-Dawley rat arthritis model assessed as decrease in weight burden on contralateral to ipsilateral paw at 42.4 mg/kg, po administered 14 days post complete freund's adjuvant challenge and measured up to 45 mins by incapacitance test; assay type: functional, organism-based
Carbonic anhydrase 1 [8] = target: T1, Carbonic anhydrase 1; test: Inhibition of recombinant human carbonic anhydrase 1 incubated for 6 hrs prior to testing measured for 10 to 100 secs by phenol red-based stopped-flow CO2 hydration assay
Carbonic anhydrase 2 [9] = target: T2, Carbonic anhydrase 2; test: Inhibition of recombinant human carbonic anhydrase 2 incubated for 6 hrs prior to testing measured for 10 to 100 secs by phenol red-based stopped-flow CO2 hydration assay
Carbonic anhydrase 12 = Carbonic anhydrase 12 (Homo sapiens, UniProt O43570); test: Inhibition of recombinant human carbonic anhydrase 12 incubated for 6 hrs prior to testing measured for 10 to 100 secs by phenol red-based stopped-flow CO2 hydration assay
Carbonic anhydrase 12, sequence (O43570 whole entry): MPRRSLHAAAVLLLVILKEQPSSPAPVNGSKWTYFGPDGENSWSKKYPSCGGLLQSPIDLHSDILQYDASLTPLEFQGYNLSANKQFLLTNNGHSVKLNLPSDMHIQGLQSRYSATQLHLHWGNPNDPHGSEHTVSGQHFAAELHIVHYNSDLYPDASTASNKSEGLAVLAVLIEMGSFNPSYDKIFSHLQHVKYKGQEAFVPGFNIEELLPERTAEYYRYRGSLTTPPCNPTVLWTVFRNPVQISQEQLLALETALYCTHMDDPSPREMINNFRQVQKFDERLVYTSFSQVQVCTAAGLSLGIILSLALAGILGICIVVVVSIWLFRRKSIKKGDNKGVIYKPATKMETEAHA

Carbonic anhydrase 9 [10] = target: T3, Carbonic anhydrase 9; test: Inhibition of recombinant human carbonic anhydrase 9 incubated for 6 hrs prior to testing measured for 10 to 100 secs by phenol red-based stopped-flow CO2 hydration assay
Rattus norvegicus [11] = test: as §2, with “100” for “42.4”, “15” for “45”; assay type: functional, organism-based
Rattus norvegicus [12] = test: Effect on contralateral paw withdrawal reflex threshold in complete freund's adjuvant-induced Sprague-Dawley rat arthritis model at 100 mg/kg, po administered 14 days post complete freund's adjuvant challenge by analgesiometry-based paw pressure test; assay type: ADME, organism-based; settings: in vivo, 336 h
Rattus norvegicus [13] = test: as §1, with “100” for “42.4”, “after 15” for “up”, “60” for “45”; assay type: functional, organism-based
Rattus norvegicus [14] = test: as §1, with “100” for “42.4”, “15” for “45”; assay type: functional, organism-based

T1 sequence (P00915 whole entry): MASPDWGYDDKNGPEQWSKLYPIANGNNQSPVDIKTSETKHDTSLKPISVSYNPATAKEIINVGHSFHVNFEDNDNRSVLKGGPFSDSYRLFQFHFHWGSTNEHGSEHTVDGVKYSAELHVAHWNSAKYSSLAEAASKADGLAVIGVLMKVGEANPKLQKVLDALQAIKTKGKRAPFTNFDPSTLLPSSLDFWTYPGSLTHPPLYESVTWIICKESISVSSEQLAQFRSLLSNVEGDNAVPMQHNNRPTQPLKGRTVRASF

Ki (Carbonic anhydrase 1 [1]) | Ki (Carbonic anhydrase 2 [2]) | Ki (Carbonic anhydrase 9 [3]) | Ki (Carbonic anhydrase 1 [8]) | Ki (Carbonic anhydrase 2 [9]) | Ki (Carbonic anhydrase 12) | Ki (Carbonic anhydrase 9 [10]) | SMILES | also measured
30.2 nM | 29.5 nM | 7.6 nM |  |  |  |  | C#CCSc1ccc(S(N)(=O)=O)cc1 | 
852 nM | 96.5 nM | 416 nM |  |  |  |  | C#CCNc1ccc(S(N)(=O)=O)cc1 | Activity (Rattus norvegicus [4]): Active; Activity (Rattus norvegicus [5]): Non-Toxic; Activity (Rattus norvegicus [6]): inactive; Ki (Carbonic anhydrase 4): > 10 µM; Activity (Rattus norvegicus [7]): Active
 |  |  | > 10 µM | > 10 µM | 44.5 nM | 474 nM | C#CCOc1ccc2c(c1)C=CS(=O)(=O)O2 | 
 |  |  | > 10 µM | > 10 µM | 30.3 nM | 6190 nM | C#CCOc1ccc2c(c1)OS(=O)(=O)C=C2 | 
 |  |  |  |  | 34.7 nM | 171 nM | C#CCNc1ccc2c(C)cc(=O)oc2c1 | 
 |  |  |  |  |  |  | CC(C)Cc1ccc(C(C)C(=O)O)cc1 (stereo not given) [IBUPROFEN] | Activity (Rattus norvegicus [11]): Active; Activity (Rattus norvegicus [12]): Non-Toxic; Activity (Rattus norvegicus [13]): inactive; Activity (Rattus norvegicus [14]): Active
817 nM | 0.44 nM | 3.8 nM |  |  |  |  | C#CCN(CC#C)CCCCOc1ccc(S(N)(=O)=O)cc1 | 

SMILES | Ki (Carbonic anhydrase 1 [1]) | Ki (Carbonic anhydrase 2 [2]) | Ki (Carbonic anhydrase 9 [3]) | Ki (Carbonic anhydrase 1 [8]) | Ki (Carbonic anhydrase 2 [9]) | Ki (Carbonic anhydrase 12) | Ki (Carbonic anhydrase 9 [10]) | also measured
C#CCOc1ccc2oc(=O)ccc2c1 |  |  |  | > 10 µM | > 10 µM |  |  | 

Source: ChEMBL document CHEMBL4359845, “Synthesis and Evaluation of Carbonic Anhydrase Inhibitors with Carbon Monoxide Releasing Properties for the Management of Rheumatoid Arthritis” (J Med Chem, 2019)
